From the NIST ThermoML archive (doi:10.1021/je200721d)
Numbers after ± are expanded uncertainties.

Test: xn = mol fraction of the nth substance listed
Conditions: Liquid, Vibrating tube method

SMILES: CCCCCCCCCC [decane] + CCCCCC
- mass density (362.91 K, 7000 kPa, x2 = 0.0456): 681.43 ± 0.31 kg/m3
- mass density (362.91 K, 8000 kPa, x2 = 0.0456): 682.51 ± 0.31 kg/m3
- mass density (362.91 K, 9000 kPa, x2 = 0.0456): 683.59 ± 0.32 kg/m3
- mass density (362.91 K, 10000 kPa, x2 = 0.0456): 684.65 ± 0.33 kg/m3
- mass density (362.91 K, 11000 kPa, x2 = 0.0456): 685.7 ± 0.34 kg/m3
- mass density (362.91 K, 12000 kPa, x2 = 0.0456): 686.71 ± 0.35 kg/m3
- mass density (362.91 K, 13000 kPa, x2 = 0.0456): 687.73 ± 0.35 kg/m3
- mass density (362.91 K, 14000 kPa, x2 = 0.0456): 688.73 ± 0.36 kg/m3
- mass density (362.91 K, 15000 kPa, x2 = 0.0456): 689.71 ± 0.37 kg/m3
- mass density (362.91 K, 16000 kPa, x2 = 0.0456): 690.69 ± 0.38 kg/m3
- mass density (362.91 K, 17000 kPa, x2 = 0.0456): 691.65 ± 0.39 kg/m3
- mass density (362.91 K, 18000 kPa, x2 = 0.0456): 692.61 ± 0.4 kg/m3
- mass density (362.91 K, 19000 kPa, x2 = 0.0456): 693.55 ± 0.41 kg/m3
- mass density (362.91 K, 20000 kPa, x2 = 0.0456): 694.48 ± 0.41 kg/m3
- mass density (362.91 K, 21000 kPa, x2 = 0.0456): 695.43 ± 0.42 kg/m3
- mass density (362.91 K, 22000 kPa, x2 = 0.0456): 696.32 ± 0.43 kg/m3
- mass density (362.91 K, 23000 kPa, x2 = 0.0456): 697.22 ± 0.44 kg/m3
- mass density (362.91 K, 24000 kPa, x2 = 0.0456): 698.09 ± 0.45 kg/m3
- mass density (362.91 K, 25000 kPa, x2 = 0.0456): 698.96 ± 0.46 kg/m3
- mass density (362.93 K, 1000 kPa, x2 = 0.7524): 623.36 ± 0.28 kg/m3
- mass density (362.93 K, 2000 kPa, x2 = 0.7524): 624.97 ± 0.29 kg/m3
- mass density (362.93 K, 3000 kPa, x2 = 0.7524): 626.55 ± 0.3 kg/m3
- mass density (362.93 K, 4000 kPa, x2 = 0.7524): 628.12 ± 0.31 kg/m3
- mass density (362.93 K, 5000 kPa, x2 = 0.7524): 629.63 ± 0.32 kg/m3
- mass density (362.93 K, 6000 kPa, x2 = 0.7524): 631.14 ± 0.32 kg/m3
- mass density (362.93 K, 7000 kPa, x2 = 0.7524): 632.58 ± 0.33 kg/m3
- mass density (362.93 K, 8000 kPa, x2 = 0.7524): 634.03 ± 0.34 kg/m3
- mass density (362.93 K, 9000 kPa, x2 = 0.7524): 635.42 ± 0.35 kg/m3
- mass density (362.93 K, 10000 kPa, x2 = 0.7524): 636.78 ± 0.36 kg/m3
- mass density (362.93 K, 11000 kPa, x2 = 0.7524): 638.11 ± 0.37 kg/m3
- mass density (362.93 K, 12000 kPa, x2 = 0.7524): 639.39 ± 0.38 kg/m3
- mass density (362.93 K, 13000 kPa, x2 = 0.7524): 640.69 ± 0.39 kg/m3
- mass density (362.93 K, 14000 kPa, x2 = 0.7524): 641.96 ± 0.4 kg/m3
- mass density (362.93 K, 15000 kPa, x2 = 0.7524): 643.24 ± 0.41 kg/m3
- mass density (362.93 K, 16000 kPa, x2 = 0.7524): 644.37 ± 0.42 kg/m3
- mass density (362.93 K, 17000 kPa, x2 = 0.7524): 645.56 ± 0.43 kg/m3
- mass density (362.93 K, 18000 kPa, x2 = 0.7524): 646.73 ± 0.44 kg/m3
- mass density (362.93 K, 19000 kPa, x2 = 0.7524): 647.87 ± 0.45 kg/m3
- mass density (362.93 K, 20000 kPa, x2 = 0.7524): 649 ± 0.46 kg/m3
- mass density (362.93 K, 21000 kPa, x2 = 0.7524): 650.11 ± 0.47 kg/m3
- mass density (362.93 K, 22000 kPa, x2 = 0.7524): 651.2 ± 0.48 kg/m3
- mass density (362.93 K, 23000 kPa, x2 = 0.7524): 652.27 ± 0.49 kg/m3
- mass density (362.93 K, 24000 kPa, x2 = 0.7524): 653.3 ± 0.51 kg/m3
- mass density (362.93 K, 25000 kPa, x2 = 0.7524): 654.33 ± 0.52 kg/m3
- mass density (362.94 K, 1000 kPa, x2 = 0.4968): 646.01 ± 0.28 kg/m3
- mass density (362.94 K, 2000 kPa, x2 = 0.4968): 647.42 ± 0.28 kg/m3
- mass density (362.94 K, 3000 kPa, x2 = 0.4968): 648.86 ± 0.29 kg/m3
- mass density (362.94 K, 4000 kPa, x2 = 0.4968): 650.21 ± 0.3 kg/m3
- mass density (362.94 K, 5000 kPa, x2 = 0.4968): 651.6 ± 0.3 kg/m3
- mass density (362.94 K, 6000 kPa, x2 = 0.4968): 652.91 ± 0.31 kg/m3
- mass density (362.94 K, 7000 kPa, x2 = 0.4968): 654.2 ± 0.32 kg/m3
- mass density (362.94 K, 8000 kPa, x2 = 0.4968): 655.48 ± 0.33 kg/m3
- mass density (362.94 K, 9000 kPa, x2 = 0.4968): 656.71 ± 0.34 kg/m3
- mass density (362.94 K, 10000 kPa, x2 = 0.4968): 657.94 ± 0.35 kg/m3
- mass density (362.94 K, 11000 kPa, x2 = 0.4968): 659.13 ± 0.36 kg/m3
- mass density (362.94 K, 12000 kPa, x2 = 0.4968): 660.32 ± 0.37 kg/m3
- mass density (362.94 K, 13000 kPa, x2 = 0.4968): 661.45 ± 0.38 kg/m3
- mass density (362.94 K, 14000 kPa, x2 = 0.4968): 662.6 ± 0.39 kg/m3
- mass density (362.94 K, 15000 kPa, x2 = 0.4968): 663.75 ± 0.39 kg/m3
- mass density (362.94 K, 16000 kPa, x2 = 0.4968): 664.81 ± 0.4 kg/m3
- mass density (362.94 K, 17000 kPa, x2 = 0.4968): 665.88 ± 0.41 kg/m3
- mass density (362.94 K, 18000 kPa, x2 = 0.4968): 666.95 ± 0.42 kg/m3
- mass density (362.94 K, 19000 kPa, x2 = 0.4968): 667.98 ± 0.43 kg/m3
- mass density (362.94 K, 20000 kPa, x2 = 0.4968): 669.01 ± 0.44 kg/m3
- mass density (362.94 K, 21000 kPa, x2 = 0.4968): 670.03 ± 0.45 kg/m3
- mass density (362.94 K, 22000 kPa, x2 = 0.4968): 671.04 ± 0.46 kg/m3
- mass density (362.94 K, 23000 kPa, x2 = 0.4968): 672.03 ± 0.47 kg/m3
- mass density (362.94 K, 24000 kPa, x2 = 0.4968): 673 ± 0.48 kg/m3
- mass density (362.94 K, 25000 kPa, x2 = 0.4968): 673.96 ± 0.49 kg/m3
- mass density (362.95 K, 1000 kPa, x2 = 0.2185): 664.98 ± 0.27 kg/m3
- mass density (362.95 K, 2000 kPa, x2 = 0.2185): 666.23 ± 0.27 kg/m3
- mass density (362.95 K, 3000 kPa, x2 = 0.2185): 667.46 ± 0.28 kg/m3
- mass density (362.95 K, 4000 kPa, x2 = 0.2185): 668.71 ± 0.29 kg/m3
- mass density (362.95 K, 5000 kPa, x2 = 0.2185): 669.93 ± 0.29 kg/m3
- mass density (362.95 K, 6000 kPa, x2 = 0.2185): 671.12 ± 0.3 kg/m3
- mass density (362.95 K, 7000 kPa, x2 = 0.2185): 672.27 ± 0.31 kg/m3
- mass density (362.95 K, 8000 kPa, x2 = 0.2185): 673.43 ± 0.32 kg/m3
- mass density (362.95 K, 9000 kPa, x2 = 0.2185): 674.54 ± 0.33 kg/m3
- mass density (362.95 K, 10000 kPa, x2 = 0.2185): 675.66 ± 0.34 kg/m3
- mass density (362.95 K, 11000 kPa, x2 = 0.2185): 676.75 ± 0.34 kg/m3
- mass density (362.95 K, 12000 kPa, x2 = 0.2185): 677.81 ± 0.35 kg/m3
- mass density (362.95 K, 13000 kPa, x2 = 0.2185): 678.85 ± 0.36 kg/m3
- mass density (362.95 K, 14000 kPa, x2 = 0.2185): 679.9 ± 0.37 kg/m3
- mass density (362.95 K, 15000 kPa, x2 = 0.2185): 680.96 ± 0.38 kg/m3
- mass density (362.95 K, 16000 kPa, x2 = 0.2185): 681.94 ± 0.39 kg/m3
- mass density (362.95 K, 17000 kPa, x2 = 0.2185): 682.95 ± 0.4 kg/m3
- mass density (362.95 K, 18000 kPa, x2 = 0.2185): 683.9 ± 0.41 kg/m3
- mass density (362.95 K, 19000 kPa, x2 = 0.2185): 684.89 ± 0.41 kg/m3
- mass density (362.95 K, 20000 kPa, x2 = 0.2185): 685.85 ± 0.42 kg/m3
- mass density (362.95 K, 21000 kPa, x2 = 0.2185): 686.79 ± 0.43 kg/m3
- mass density (362.95 K, 22000 kPa, x2 = 0.2185): 687.72 ± 0.44 kg/m3
- mass density (362.95 K, 23000 kPa, x2 = 0.2185): 688.63 ± 0.45 kg/m3
- mass density (362.95 K, 24000 kPa, x2 = 0.2185): 689.54 ± 0.46 kg/m3
- mass density (362.95 K, 25000 kPa, x2 = 0.2185): 690.43 ± 0.47 kg/m3
